The text below walks through data of patent US7608716B2, “Pyrazolonaphthyridine derivative” (Aska Pharmaceutical Co., Ltd., priority 2002, dated 2009).

By IC50 is commonly meant the concentration at which inhibition is half-maximal. The melting point is the temperature of the solid-liquid transition.

The first data set has as its system T1, PDE IV isozymes separated from U937 culture cells.
T1 construct: PDE IV isozymes as used herein were separated from U937 culture cells by using an anion exchange chromatography
Description: PDE IV inhibition ([3H]-cAMP hydrolysis). The format is biochemical. The settings on record: cAMP 1 μM substrate, 30° C., 20 minutes. How it is done: PDE IV isozymes as used herein were separated from U937 culture cells by using an anion exchange chromatography. Type IV PDE isozyme was admixed with ethylene glycol (EG) to adjust the final EG concentration to 30%, then stored at −20° C. and diluted when used. The enzymatic activity for PDE IV was measured using cAMP as a substrate.
Each test compound was dissolved in DMSO to adjust the final concentration to 1% (2.5 μl/tube).
Incubation Buffer Solution (pH7.5):
• Tris-HCl (50 mM), magnesium chloride (6 mM), dithiothreitol (2.5 mM), 5-nucleotidase (4 μg/ml), bovine serum albumin (0.23 mg/ml), and cAMP (1 μM).
A mixture of the aforementioned test compound solution and the buffer solution was incubated at 30° C. for 20 minutes. The reaction was quenched by admixing with 1 ml of anion exchange resin slurry (AG1-X8, 200-400 meshes, chloride form; Bio-Rad) to absorb unreacted substrates. After the reaction stopped, the mixture was centrifuged at 800×g for 10 minutes, and the resulting supernatant was collected with vials in 250 μl aliquots. To each vial was added 5 ml of ACS-II (scintillator, Amersham). The radioactivity was measured with a liquid scintillator counter for [^3H]-adenosine and set as the PDE IV activity.
The compound `Nc1ccc(Cc2n[nH]c3c2c(=O)n(-c2ccccc2)c2ncccc32)cc1` [Example No. 43, 3-(4-aminobenzyl)-5-phenyl-1H-pyrazolo[4,3-c][1,8]-naphthyridin-4 (5H)-one] gave an IC50 of 0.086 µM. This counts as double-digit nanomolar. `COc1ccccc1Cc1n[nH]c2c1c(=O)n(-c1ccccc1)c1ncccc21` [Example No. 22, 3-(2-methoxybenzyl)-5-phenyl-1H-pyrazolo[4,3-c][1,8]naphthyridin-4 (5H)-one] returned an IC50 of 0.026 µM.

Compound `N#Cc1cccc(-n2c(=O)c3c(Cc4ccccc4)n[nH]c3c3cccnc32)c1` [Example No. 53, 3-benzyl-5-(3-cyanophenyl)-1H-pyrazolo[4,3-c][1,8]-naphthyridin-4 (5H)-one] gave a half-maximal inhibitory concentration (IC50) of 0.028 µM.

On to `O=c1c2c(CCc3cc[n+]([O-])cc3)n[nH]c2c2cccnc2n1-c1ccccc1` [Example No. 5, 5-phenyl-3-[2-(1-oxypyridin-4-yl)ethyl]-1H-pyrazolo[4,3-c][1,8]-naphthyridin-4 (5H)-one], for which the half-maximal inhibitory concentration (IC50) worked out at 0.067 µM. In the case of `O=c1c2c(Cc3ccccc3)n[nH]c2c2cccnc2n1-c1cccc(F)c1` [Example No. 58, 3-benzyl-5-(3-fluorophenyl)-1H-pyrazolo[4,3-c][1,8]-naphthyridin-4 (5H)-one], the half-inhibitory concentration (IC50) turned out to be 0.035 µM. This IC50 lies about 1.9-fold lower than the previous one.

`CCOC(=O)Cc1ccc(Cc2n[nH]c3c2c(=O)n(-c2ccccc2)c2ncccc32)cc1` [Example No. 32, 3-(4-ethoxycarbonylmethylbenzyl)-5-phenyl-1H-pyrazolo[4,3-c][1,8]naphthyridin-4 (5H)-one] came in with an IC50 of 0.028 µM. The IC50 values of the last two compounds are within 1.5-fold of each other. Consider `O=C(O)Cc1ccc(Cc2n[nH]c3c2c(=O)n(-c2ccccc2)c2ncccc32)cc1` [Example No. 46, 3-(4-carboxymethylbenzyl)-5-phenyl-1H-pyrazolo[4,3-c][1,8]naphthyridin-4 (5H)-one], for which the IC50 amounted to 0.032 µM. The same measure, in the same setting: for `COc1ccc(OC)c(Cc2n[nH]c3c2c(=O)n(-c2ccccc2)c2ncccc32)c1` [Example No. 27, 3-(2,5-dimethoxybenzyl)-5-phenyl-1H-pyrazolo[4,3-c][1,8]naphthyridin-4 (5H)-one] the value was 0.021 µM; for `O=c1c2c(Cc3ccccc3)n[nH]c2c2cccnc2n1-c1cccc([N+](=O)[O-])c1` [Example No. 56, 3-benzyl-5-(3-nitrophenyl)-1H-pyrazolo[4,3-c][1,8]-naphthyridin-4 (5H)-one], 0.023 µM.

Turning to `COc1ccc(Cc2n[nH]c3c2c(=O)n(-c2ccccc2)c2ncccc32)cc1` [Example No. 21, 3-(4-methoxybenzyl)-5-phenyl-1H-pyrazolo[4,3-c][1,8]naphthyridin-4 (5H)-one], inhibition was half-maximal at 0.088 µM (IC50). In turn, `O=c1c2c(Cc3ccc(O)cc3)n[nH]c2c2cccnc2n1-c1ccccc1` [Example No. 41, 3-(4-hydroxybenzyl)-5-phenyl-1H-pyrazolo[4,3-c][1,8]-naphthyridin-4 (5H)-one] came in with a 50% inhibitory concentration (IC50) of 0.089 µM.

`O=C(O)c1ccc(CCc2n[nH]c3c2c(=O)n(-c2ccccc2)c2ncccc32)cc1` [Example No. 14, 3-[2-(4-carboxyphenyl)ethyl]-5-phenyl-1H-pyrazolo[4,3-c][1,8]naphthyridin-4 (5H)-one] registered an IC50 of 0.057 µM. Still for that read-out and setting: under `Nc1ccc(CCc2n[nH]c3c2c(=O)n(-c2ccccc2)c2ncccc32)cc1` [Example No. 13, 3-[2-(4-aminophenyl)ethyl]-5-phenyl-1H-pyrazolo[4,3-c][1,8]naphthyridin-4 (5H)-one] stands 0.031 µM. Still for that read-out and setting: for `O=c1c2c(CCc3ccncc3)n[nH]c2c2cccnc2n1-c1cccc([N+](=O)[O-])c1` [Example No. 6, 5-(3-nitrophenyl)-3-[2-(pyridin-4-yl)ethyl]-1H-pyrazolo[4,3-c][1,8]naphthyridin-4 (5H)-one] the value was 0.025 µM.

Compound `O=c1c2c(Cc3ccccc3[N+](=O)[O-])n[nH]c2c2cccnc2n1-c1ccccc1` [Example No. 26, 3-(2-nitrobenzyl)-5-phenyl-1H-pyrazolo[4,3-c][1,8]naphthyridin-4 (5H)-one] returned an IC50 of 0.02 µM. The same measure, in the same setting: for `COc1ccc(Cc2n[nH]c3c2c(=O)n(-c2ccccc2)c2ncccc32)c(OC)c1` [Example No. 30, 3-(2,4-dimethoxybenzyl)-5-phenyl-1H-pyrazolo[4,3-c][1,8]naphthyridin-4 (5H)-one] the value was 0.049 µM; for `O=c1c2c(Cc3cccs3)n[nH]c2c2cccnc2n1-c1ccccc1` [Example No. 23, 3-(2-thienylmethyl)-5-phenyl-1H-pyrazolo[4,3-c][1,8]naphthyridin-4 (5H)-one], 0.082 µM.

System in another data set: not given
Assay: not given
Conditions: not given
Consider `O=c1c2c(CCc3cc[n+]([O-])cc3)n[nH]c2c2cccnc2n1-c1ccccc1` [Example No. 5, 5-phenyl-3-[2-(1-oxypyridin-4-yl)ethyl]-1H-pyrazolo[4,3-c][1,8]-naphthyridin-4 (5H)-one], for which the melting point was 285 °C (dec.). `O=C(O)Cc1ccc(Cc2n[nH]c3c2c(=O)n(-c2ccccc2)c2ncccc32)cc1` [Example No. 46, 3-(4-carboxymethylbenzyl)-5-phenyl-1H-pyrazolo[4,3-c][1,8]naphthyridin-4 (5H)-one] gave a melting point of 297 to 300 °C. Same read-out and setting: for `O=c1c2c(Cc3ccc(O)cc3)n[nH]c2c2cccnc2n1-c1ccccc1` [Example No. 41, 3-(4-hydroxybenzyl)-5-phenyl-1H-pyrazolo[4,3-c][1,8]-naphthyridin-4 (5H)-one] the value was 316 to 317 °C.

Take `O=c1c2c(CCc3ccncc3)n[nH]c2c2cccnc2n1-c1cccc([N+](=O)[O-])c1` [Example No. 6, 5-(3-nitrophenyl)-3-[2-(pyridin-4-yl)ethyl]-1H-pyrazolo[4,3-c][1,8]naphthyridin-4 (5H)-one]: the melting point lay in the range of 161 to 165 °C. The compound `COc1ccccc1Cc1n[nH]c2c1c(=O)n(-c1ccccc1)c1ncccc21` (hydrate or solvate) [Example No. 22, 3-(2-methoxybenzyl)-5-phenyl-1H-pyrazolo[4,3-c][1,8]naphthyridin-4 (5H)-one] returned a melting point of 276 to 277 °C. On the same count and under the same terms, under `O=c1c2c(Cc3ccccc3[N+](=O)[O-])n[nH]c2c2cccnc2n1-c1ccccc1` (hydrate or solvate) [Example No. 26, 3-(2-nitrobenzyl)-5-phenyl-1H-pyrazolo[4,3-c][1,8]naphthyridin-4 (5H)-one] stands 318 to 320 °C (dec.). The same measure, in the same setting: for `O=C(O)c1ccccc1CCc1n[nH]c2c1c(=O)n(-c1ccccc1)c1ncccc21` (hydrate or solvate) [Example 37, 3-[2-(2-carboxyphenyl)ethyl]-5-phenyl-1H-pyrazolo[4,3-c][1,8]naphthyridin-4 (5H)-one] the value was 302 to 308 °C; for `NC(=O)Nc1ccccc1CCc1n[nH]c2c1c(=O)n(-c1ccccc1)c1ncccc21` [Example 50, 5-phenyl-3-[2-(2-ureidophenyl)ethyl]-1H-pyrazolo[4,3-c][1,8]naphthyridin-4 (5H)-one], 300 to 305 °C. On the same count and under the same terms, for `CS(=O)(=O)Nc1ccc(Cc2n[nH]c3c2c(=O)n(-c2ccccc2)c2ncccc32)cc1` [Example 49, 3-(4-methanesulfonylaminobenzyl)-5-phenyl-1H-pyrazolo[4,3-c][1,8]naphthyridin-4 (5H)-one] the value was 306 to 307 °C; for `O=c1c2c(Cc3cccnc3)n[nH]c2c2cccnc2n1-c1ccccc1` [Example 4, 5-phenyl-3-(pyridin-3-yl)methyl-1H-pyrazolo[4,3-c][1,8]-naphthyridin-4 (5H)-one], 306 °C (dec.).

In the next data set the test system is actively sensitized guinea pigs. As to the kind of experiment: Inhibition of antigen-induced immediate asthmatic response (airway resistance, Konzett-Rossler). The settings on record: Cavia porcellus, oral, 60 minutes prior to antigen-challenge, reduction of increase in airway resistance, read-out: Inhibition of Asthmatic response ED50: mg/kg orally. The data set is classed as in vivo, Hartley guinea pigs. How it is done: Male Hartley outbred guinea pigs were sensitized by administering intraperitoneally physiological saline (0.5 ml) containing ovalbumin (1 mg, antigen) and 5×10^9 inactivated Bordetella pertussis dead cells (adjuvant). Eleven to thirteen days after the first sensitization, 0.05 ml of an ovalbumin solution (1 mg/ml) (ovalbumin is dissolved in physiological saline) was administered to the lateroabdominal region of each guinea pig intracutaneously. An establishment of sensitization was checked relying on cutaneous reaction. Only guinea pigs wherein significant reddening responses occurred 5 to 10 minutes later were employed in the next measurement test for airway resistance.
The guinea pigs (3 animals per group) actively sensitized in the above step (1) were employed to measure for their airway pressure according to Konzett-Rossler method (Arch. Exp. Path. Pharmakol., 195, 71 (1940)).
Thirteen days after the final sensitization, guinea pigs fasted overnight, and were on the next day anesthetized with a pentobarbital solution (30 mg/1.2 ml/kg, dissolved in physiological saline, intraperitoneal administration). After the guinea pigs were fixed in a supine position, their trachea was incised followed by insertion with one port of a 4-port cannula. Among the remaining 3 ports, 2 ports were connected to an artificial respirator (Model 683, Harvard). The animals were ventilated with 10 ml/kg of air per ventilation at a rate of 60 beats/min via the artificial respirator from the cannula. One port remainder was connected to a respiratory amplifier (AR-601G, Nihon Kohden, Japan) via an airflow resistance tube (TV-241T, Nihon Kohden, Japan) and a differential pressure transducer (TP-602T, Nihon Kohden, Japan) connected with a control box (RY-111S, Nihon Kohden, Japan). From a catheter inserted into a left carotid artery, blood pressures were monitored with a blood pressure measurement unit (AP641G, NEC Corp., Japan) via a blood pressure transducer (TP-300T, Nihon Kohden, Japan), and heart rates were recorded on a thermal recorder (WT-685G, Nihon Kohden, Japan), relying on blood pressure pulse waves after being led to a cardiograph unit (AT601G, Nihon Kohden, Japan).
After airway pressure became stable, an ovalbumin solution (1 mg/ml, dissolved in physiological saline) was administered at a dose of 1 ml/kg via a tube with which the right jugular vein of guinea pigs was cannulated.
Each test compound was suspended in 0.5% CMC-Na solution and administered orally with an oral sound at a dose of 0.03 to 20 mg/2 ml/kg 60 minutes prior to the antigen-challenge. Control groups received only 0.5% CMC-Na solution in an equivalent amount. The pentobarbital-anesthetization and tracheal incision were conducted 30 minutes prior to the antigen-challenge.
Each percent reduction of increase in airway resistance (each test compound-administered group versus control group) was calculated according to the equation given below. ED50 was obtained by Probit method.
For the compound `COc1ccc(C2CNC(=O)C2)cc1OC1CCCC1` (single isomer, unassigned; (-)) [Rolipram, (−)-4-[3-(cyclopentyloxy)-4-methoxyphenyl]-2-pyrrolidinone], the ED50 came out at 0.51 mg/kg.
